In patent US8492376B2, “Heteroaryl-cyclohexyl-tetraazabenzo[e]azulenes” (Hoffmann-La Roche Inc., priority 2010, dated 2013):
Structures can show the parent of a compound that is named as a salt.

target: T1, human V1a receptor (Homo sapiens, UniProt P37288); test: human V1a receptor binding studies (3H-Vasopressin, SPA beads); details: membranes from HEK293 cells transiently transfected with human V1a receptor, Ki calculated from IC50 by the Cheng-Prussoff equation, read-out: pKi (hV1a) (converted)
T1 construct: expressed in transfected cells; host or cells: HEK293 cells, transiently transfected; cell membranes
How it was run: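 Membranes from HEK293 cells transiently expressing human V1a were bound to yttrium silicate SPA beads in Tris/NaCl/KCl/CaCl2/MgCl2 buffer. 3H-vasopressin (4 nM stock) and compound in 2% DMSO incubated 1 h at room temperature. Non-specific binding was defined with cold vasopressin; IC50 was converted to Ki by Cheng-Prusoff.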

T1 sequence (P37288 whole entry): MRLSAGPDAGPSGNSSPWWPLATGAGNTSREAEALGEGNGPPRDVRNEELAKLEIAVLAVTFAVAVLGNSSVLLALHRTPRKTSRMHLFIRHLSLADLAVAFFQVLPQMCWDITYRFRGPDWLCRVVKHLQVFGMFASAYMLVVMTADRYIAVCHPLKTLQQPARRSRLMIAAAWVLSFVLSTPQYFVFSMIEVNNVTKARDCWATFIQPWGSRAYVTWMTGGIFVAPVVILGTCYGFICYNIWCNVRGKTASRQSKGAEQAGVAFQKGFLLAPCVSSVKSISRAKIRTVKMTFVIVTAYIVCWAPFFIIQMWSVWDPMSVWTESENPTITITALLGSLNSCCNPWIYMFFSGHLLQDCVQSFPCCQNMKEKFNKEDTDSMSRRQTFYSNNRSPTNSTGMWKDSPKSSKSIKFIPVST

Structure (SMILES) | Ki
CC(C)c1cccc([C@H]2CC[C@H](c3nnc4n3-c3ccc(Cl)cc3CNC4)CC2)n1 [Example 11, trans-8-Chloro-1-[4-(6-isopropyl-pyridin-2-yl)-cyclohexyl]-5,6-dihydro-4H-2,3,5,10b-tetraaza-benzo[e]azulene hydrochloride] | 70.8 nM
CN1Cc2cc(Cl)ccc2-n2c(nnc2[C@H]2CC[C@H](c3ncc(F)cc3F)CC2)C1 [Example 87, trans-8-Chloro-1-[4-(3,5-difluoro-pyridin-2-yl)-cyclohexyl]-5-methyl-5,6-dihydro-4H-2,3,5,10b-tetraaza-benzo[e]azulene] | 1.29 nM
CC(C)(C)OC(=O)N1Cc2cc(Cl)ccc2-n2c(nnc2[C@H]2CC[C@@H](c3ncccn3)CC2)C1 [Example 58, cis-8-Chloro-1-(4-pyrimidin-2-yl-cyclohexyl)-4H,6H-2,3,5,10b-tetraaza-benzo[e]azulene-5-carboxylic acid tert-butyl ester] | 20.4 nM
CC(C)(C)OC(=O)N1Cc2cc(Cl)ccc2-n2c(nnc2[C@H]2CC[C@H](c3ncc(F)cc3F)CC2)C1 [Example 85, trans-8-Chloro-1-[4-(3,5-difluoro-pyridin-2-yl)-cyclohexyl]-4H,6H-2,3,5,10b-tetraaza-benzo[e]azulene-5-carboxylic acid tert-butyl ester] | 1.1 nM
Clc1ccc2c(c1)CNCc1nnc([C@H]3CC[C@H](c4cccnc4)CC3)n1-2 [Example 49, trans-8-Chloro-1-(4-pyridin-3-yl-cyclohexyl)-5,6-dihydro-4H-2,3,5,10b-tetraaza-benzo[e]azulene] | 33.9 nM
CC(C)(C)OC(=O)N1Cc2cc(Cl)ccc2-n2c(nnc2[C@H]2CC[C@H](c3ncccc3Cl)CC2)C1 [Example 82, trans-8-Chloro-1-[4-(3-chloro-pyridin-2-yl)-cyclohexyl]-4H,6H-2,3,5,10b-tetraaza-benzo[e]azulene-5-carboxylic acid tert-butyl ester] | 0.501 nM
Cc1nccc([C@H]2CC[C@H](c3nnc4n3-c3ccc(Cl)cc3CNC4)CC2)n1 [Example 67, trans-8-Chloro-1-[4-(2-methyl-pyrimidin-4-yl)-cyclohexyl]-5,6-dihydro-4H-2,3,5,10b-tetraaza-benzo[e]azulene] | 1100 nM
CCc1cccc([C@H]2CC[C@H](c3nnc4n3-c3ccc(Cl)cc3CN(C)C4)CC2)n1 [Example 9, trans-8-Chloro-1-[4-(6-ethyl-pyridin-2-yl)-cyclohexyl]-5-methyl-5,6-dihydro-4H-2,3,5,10b-tetraaza-benzo[e]azulene] | 1.1 nM
O=C(CO)N1Cc2cc(Cl)ccc2-n2c(nnc2[C@H]2CC[C@H](c3ncccc3F)CC2)C1 [Example 38, trans-1-{8-Chloro-1-[4-(3-fluoro-pyridin-2-yl)-cyclohexyl]-4H,6H-2,3,5,10b-tetraaza-benzo[e]azulen-5-yl}-2-hydroxy-ethanone] | 2.29 nM
Cc1nccc([C@H]2CC[C@H](c3nnc4n3-c3ccc(Cl)cc3CN(C(=O)OC(C)(C)C)C4)CC2)n1 [Example 66, trans-8-Chloro-1-[4-(2-methyl-pyrimidin-4-yl)-cyclohexyl]-4H,6H-2,3,5,10b-tetraaza-benzo[e]azulene-5-carboxylic acid tert-butyl ester] | 9.77 nM
CN1Cc2cc(Cl)ccc2-n2c(nnc2[C@H]2CC[C@@H](c3ncccc3F)CC2)C1 [Example 47, cis-8-Chloro-1-[4-(3-fluoro-pyridin-2-yl)-cyclohexyl]-5-methyl-5,6-dihydro-4H-2,3,5,10b-tetraaza-benzo[e]azulene] | 25.1 nM
CC(C)(C)OC(=O)N1Cc2cc(F)ccc2-n2c(nnc2[C@H]2CC[C@H](c3ncccc3F)CC2)C1 [Example 42, trans-8-Fluoro-[4-(3-fluoro-pyridin-2-yl)-cyclohexyl]-4H,6H-2,3,5,10b-tetraaza-benzo[e]azulene-5-carboxylic acid tert-butyl ester] | 0.525 nM
CS(=O)(=O)N1Cc2cc(Cl)ccc2-n2c(nnc2[C@H]2CC[C@H](c3ncccc3F)CC2)C1 [Example 40, trans-8-Chloro-1-[4-(3-fluoro-pyridin-2-yl)-cyclohexyl]-5-methanesulfonyl-5,6-dihydro-4H-2,3,5,10b-tetraaza-benzo[e]azulene] | 0.178 nM
CN1Cc2cc(Cl)ccc2-n2c(nnc2[C@H]2CC[C@H](c3cccnc3Cl)CC2)C1 [Example 53, trans-8-Chloro-1-[4-(2-chloro-pyridin-3-yl)-cyclohexyl]-5-methyl-5,6-dihydro-4H-2,3,5,10b-tetraaza-benzo[e]azulene] | 13.8 nM
Fc1cccnc1[C@H]1CC[C@H](c2nnc3n2-c2ccc(Cl)cc2CN(CC(F)F)C3)CC1 [Example 34, trans-8-Chloro-5-(2,2-difluoro-ethyl)-[4-(3-fluoro-pyridin-2-yl)-cyclohexyl]-5,6-dihydro-4H-2,3,5,10b-tetraaza-benzo[e]azulene] | 0.186 nM
Clc1ccc2c(c1)CNCc1nnc([C@H]3CC[C@H](c4cccnc4Cl)CC3)n1-2 [Example 52, trans-8-Chloro-1-[4-(2-chloro-pyridin-3-yl)-cyclohexyl]-5,6-dihydro-4H-2,3,5,10b-tetraaza-benzo[e]azulene] | 81.3 nM
CN(C)S(=O)(=O)N1Cc2cc(Cl)ccc2-n2c(nnc2[C@H]2CC[C@H](c3ncccc3F)CC2)C1 [Example 41, trans-8-Chloro-1-[4-(3-fluoro-pyridin-2-yl)-cyclohexyl]-4H,6H-2,3,5,10b-tetraaza-benzo[e]azulene-5-sulfonic acid dimethylamide] | 0.603 nM
Cc1cnc(C)c([C@H]2CC[C@H](c3nnc4n3-c3ccc(Cl)cc3CN(C)C4)CC2)n1 [Example 80, trans-8-Chloro-1-[4-(3,6-dimethyl-pyrazin-2-yl)-cyclohexyl]-5-methyl-5,6-dihydro-4H-2,3,5,10b-tetraaza-benzo[e]azulene] | 7.24 nM
